From patent US12251387B2, “Substituted quinoxalines and benzo[c][1,2,5]oxadiazoles as DNA-PK inhibitors” (Vertex Pharmaceuticals Incorporated, priority 2013, dated 2025)

These molecules were tested against DNA-PK (Homo sapiens, UniProt P78527) (assay: DNA-PK Inhibition Assay (standard radiometric kinase assay, 33P-ATP, peptide substrate)). Conditions: radiometric assay, approximately 6 nM DNA-PK, 100 μM ATP, 45 min; fit to competitive tight-binding inhibition; read-out: Ki for the inhibition of DNA-PK.
Assay type: biochemical
Description: Compounds were screened for their ability to inhibit DNA-PK kinase using a standard radiometric assay. Briefly, in this kinase assay the transfer of the terminal ^33P-phosphate in ^33P-ATP to a peptide substrate is interrogated. The assay was carried out in 384-well plates to a final volume of 50 μL per well containing approximately 6 nM DNA-PK, 50 mM HEPES (pH 7.5), 10 mM MgCl2, 25 mM NaCl, 0.01% BSA, 1 mM DTT, 10 μg/mL sheared double-stranded DNA (obtained from Sigma), 0.8 mg/mL DNA-PK peptide (Glu-Pro-Pro-Leu-Ser-Gln-Glu-Ala-Phe-Ala-Asp-Leu-Trp-Lys-Lys-Lys, obtained from American Peptide), and 100 μM ATP. Accordingly, compounds of the invention were dissolved in DMSO to make 10 mM initial stock solutions. Serial dilutions in DMSO were then made to obtain the final solutions for the assay. A 0.75 μL aliquot of DMSO or inhibitor in DMSO was added to each well, followed by the addition of ATP substrate solution containing ^33P-ATP (obtained from Perkin Elmer). The reaction was started by the addition of DNA-PK, peptide and ds-DNA. After 45 min, the reaction was quenched with 25 μL of 5% phosphoric acid. The reaction mixture was transferred to MultiScreen HTS 384-well PH plates (obtained from Millipore), allowed to bind for one hour, and washed three times with 1% phosphoric acid. Following the addition of 50 μL of Ultima Gold™ high efficiency scintillant (obtained from Perkin Elmer), the samples were counted in a Packard TopCount NXT Microplate Scintillation and Luminescence Counter (Packard BioScience). The Ki values were calculated using Microsoft Excel Solver macros to fit the data to the kinetic model for competitive tight-binding inhibition.

Row | Ki [nM] | Structure (SMILES)
1 | < 100 | CC(C)(O)c1ncc(N[C@H]2CC[C@@H](Oc3cc(N4CCOCC4)cc4nccnc34)CC2)cn1 [Compound 341]
2 | < 100 | c1cnc2c(O[C@H]3CC[C@@H](Nc4ncnc5[nH]cnc45)CC3)cc(N3CCOCC3)cc2n1 [Compound 516]
3 | < 100 | Fc1c[nH]c2ncnc(N[C@H]3CC[C@@H](Oc4cc(N5CCOCC5)cc5nccnc45)CC3)c12 [Compound 437]
4 | < 100 | Fc1cc(N[C@H]2CC[C@@H](Oc3cc(N4CCOCC4)cc4nccnc34)CC2)ccn1 [Compound 642]
5 | < 100 | c1cc2c(c(N[C@H]3CC[C@@H](Oc4cc(N5CCOCC5)cc5nccnc45)CC3)n1)CCN2 [Compound 371]
6 | < 100 | Cn1ccc2c(N[C@H]3CC[C@@H](Oc4cc(N5CCOCC5)cc5nccnc45)CC3)ncnc21 [Compound 384]
7 | < 100 | CNC(=O)c1cccc(N[C@H]2CC[C@@H](Oc3cc(N4CCOCC4)cc4nccnc34)CC2)n1 [Compound 406]
8 | < 100 | CN1CCN(C(=O)c2cnc(N[C@H]3CC[C@@H](Oc4cc(N5CCOCC5)cc5nccnc45)CC3)nc2)CC1 [Compound 337]
9 | < 100 | CN1CCC[C@H]1CNc1ncnc(N[C@H]2CC[C@@H](Oc3cc(N4CCOCC4)cc4nccnc34)CC2)c1F [Compound 359]
10 | < 100 | COCc1cc(N[C@H]2CC[C@@H](Oc3cc(N4CC5CC(C4)O5)cc4nccnc34)CC2)nc(C)n1 [Compound 309]
11 | < 100 | Fc1ccc(N[C@H]2CC[C@@H](Oc3cc(N4CCOCC4)cc4nccnc34)CC2)nc1 [Compound 622]
12 | < 100 | CNc1nc(N[C@H]2CC[C@@H](Oc3cc(N4CCOCC4)cc4nccnc34)CC2)cc(=O)[nH]1 [Compound 400]
13 | < 100 | CC(C)NC(=O)c1cc(N[C@H]2CC[C@@H](Oc3cc(N4CCOCC4)cc4nccnc34)CC2)ncn1 [Compound 643]
14 | < 100 | COc1ccc(N[C@H]2CC[C@@H](Oc3cc(N4CCOCC4)cc4nccnc34)CC2)nc1OC [Compound 583]
15 | < 100 | CN(C)C(=O)c1ccnc(N[C@H]2CC[C@@H](Oc3cc(N4CCOCC4)cc4nccnc34)CC2)n1 [Compound 351]
16 | < 100 | c1cnc2c(O[C@H]3CC[C@@H](Nc4ccc(OCCN5CCOCC5)cn4)CC3)cc(N3CCOCC3)cc2n1 [Compound 639]
17 | < 100 | CNC(=O)c1cc(N[C@H]2CC[C@@H](Oc3cc(N4CCOCC4)cc4nccnc34)CC2)ncn1 [Compound 360]
18 | < 100 | c1cnc2c(O[C@H]3CC[C@@H](Nc4ncc(OCCN5CCCCC5)cn4)CC3)cc(N3CCOCC3)cc2n1 [Compound 613]
19 | < 100 | FC(F)Oc1ccc(N[C@H]2CC[C@@H](Oc3cc(N4CCOCC4)cc4nccnc34)CC2)nc1 [Compound 572]
20 | < 100 | CN1CCN(c2cnc(N[C@H]3CC[C@@H](Oc4cc(N5CCOCC5)cc5nccnc45)CC3)nc2)CC1 [Compound 579]
21 | < 100 | c1cc(N[C@H]2CC[C@@H](Oc3cc(N4CCOCC4)cc4nccnc34)CC2)nc(CN2CCOCC2)n1 [Compound 503]
22 | < 100 | COc1cnc(N(C)C)nc1N[C@H]1CC[C@@H](Oc2cc(N3CCOCC3)cc3nccnc23)CC1 [Compound 386]

Row | Ki [nM] | Structure (SMILES)
23 | < 100 | Cc1ncccc1N[C@H]1CC[C@@H](Oc2cc(N3CCOCC3)cc3nccnc23)CC1 [Compound 442]
24 | < 100 | CNc1nc(N[C@H]2CC[C@@H](Oc3cc(N4CCOCC4)cc4nccnc34)CC2)ncc1F [Compound 482]
25 | < 100 | COc1ncccc1N[C@H]1CC[C@@H](Oc2cc(N3CCOCC3)cc3nccnc23)CC1 [Compound 445]
26 | < 100 | c1cc(-c2cnc(N[C@H]3CC[C@@H](Oc4cc(N5CCOCC5)cc5nccnc45)CC3)nc2)[nH]n1 [Compound 462]
27 | < 100 | Fc1cnc(N[C@H]2CC[C@@H](Oc3cc(N4CCOCC4)cc4nccnc34)CC2)c(F)c1 [Compound 594]
28 | < 100 | Cc1nc2c(c(N[C@H]3CC[C@@H](Oc4cc(N5CCOCC5)cc5nccnc45)CC3)n1)COC2 [Compound 452]
29 | < 100 | Cc1cncc(N[C@H]2CC[C@@H](Oc3cc(N4CCOCC4)cc4nccnc34)CC2)n1 [Compound 373]
30 | < 100 | CC(C)(C)NC(=O)N[C@H]1CC[C@@H](Oc2cc(N3CCOCC3)cc3nccnc23)CC1 [Compound 425]
31 | < 100 | c1cc(N[C@H]2CC[C@@H](Oc3cc(N4CCOCC4)cc4nccnc34)CC2)n2nccc2c1 [Compound 580]
32 | < 100 | CN(C)Cc1cc(N[C@H]2CC[C@@H](Oc3cc(N4CCOCC4)cc4nccnc34)CC2)ncn1 [Compound 390]
33 | < 100 | c1cc(CN2CCCCC2)nc(N[C@H]2CC[C@@H](Oc3cc(N4CCOCC4)cc4nccnc34)CC2)n1 [Compound 504]
34 | < 100 | Clc1nc(N[C@H]2CC[C@@H](Oc3cc(N4CCOCC4)cc4nccnc34)CC2)c2[nH]ccc2n1 [Compound 513]
35 | < 100 | CN(C)c1cc(N[C@H]2CC[C@@H](Oc3cc(N4CCOCC4)cc4nccnc34)CC2)ncn1 [Compound 603]
36 | < 100 | Cc1cc(N[C@H]2CC[C@@H](Oc3cc(N4CCOCC4)cc4nccnc34)CC2)ccn1 [Compound 285]
37 | < 100 | OCCc1cnc(N[C@H]2CC[C@@H](Oc3cc(N4CCOCC4)cc4nccnc34)CC2)nc1 [Compound 481]
38 | < 100 | CN1CCN(CCc2cnc(N[C@H]3CC[C@@H](Oc4cc(N5CCOCC5)cc5nccnc45)CC3)nc2)CC1 [Compound 430]
39 | < 100 | COc1cc(N[C@H]2CC[C@@H](Oc3cc(N4CCOCC4)cc4nccnc34)CC2)ccn1 [Compound 440]
40 | < 100 | CN(C)CCOc1ncnc(N[C@H]2CC[C@@H](Oc3cc(N4CCOCC4)cc4nccnc34)CC2)c1F [Compound 362]
41 | < 100 | CNC(=O)c1ccc(N[C@H]2CC[C@@H](Oc3cc(N4CCOCC4)cc4nccnc34)CC2)cn1 [Compound 358]
42 | < 100 | c1cc(N[C@H]2CC[C@@H](Oc3cc(N4CCOCC4)cc4nccnc34)CC2)c2c(c1)OCO2 [Compound 339]
43 | < 100 | COc1ccc(N[C@H]2CC[C@@H](Oc3cc(N4CCOCC4)cc4nccnc34)CC2)cn1 [Compound 447]
44 | < 100 | Fc1c(NC2CCOCC2)ncnc1N[C@H]1CC[C@@H](Oc2cc(N3CCOCC3)cc3nccnc23)CC1 [Compound 378]

Row | Ki [nM] | Structure (SMILES)
45 | < 100 | CNc1nccc(N[C@H]2CC[C@@H](Oc3cc(N4CCOCC4)cc4nccnc34)CC2)n1 [Compound 454]
46 | < 100 | FC(F)(F)c1ncc(N[C@H]2CC[C@@H](Oc3cc(N4CCOCC4)cc4nccnc34)CC2)cn1 [Compound 428]
47 | < 100 | CCOc1cc(N[C@H]2CC[C@@H](Oc3cc(N4CCOCC4)cc4nccnc34)CC2)ccn1 [Compound 324]
48 | < 100 | Oc1ncc(F)c(N[C@H]2CC[C@@H](Oc3cc(N4CCOCC4)cc4nccnc34)CC2)n1 [Compound 395]
49 | < 100 | CN(C)C(=O)N[C@H]1CC[C@@H](Oc2cc(N3CCOCC3)cc3nccnc23)CC1 [Compound 411]
50 | < 100 | COc1nccnc1N[C@H]1CC[C@@H](Oc2cc(N3CCOCC3)cc3nccnc23)CC1 [Compound 312]
51 | < 100 | FC(F)(F)c1ccc(N[C@H]2CC[C@@H](Oc3cc(N4CCOCC4)cc4nccnc34)CC2)cn1 [Compound 427]
52 | < 100 | COc1ncc(N[C@H]2CC[C@@H](Oc3cc(N4CCOCC4)cc4nccnc34)CC2)cn1 [Compound 574]
53 | < 100 | Cc1nccc(N[C@H]2CC[C@@H](Oc3cc(N4CC5CCC(C4)O5)cc4nccnc34)CC2)n1 [Compound 297]
54 | < 100 | CN1CCC(c2cnc(N[C@H]3CC[C@@H](Oc4cc(N5CCOCC5)cc5nccnc45)CC3)nc2)C1 (stereo partly shown) [Compound 568]
55 | < 100 | COCc1ccnc(N[C@H]2CC[C@@H](Oc3cc(N4CCOCC4)cc4nccnc34)CC2)c1 [Compound 582]
56 | < 100 | COC(=O)[C@H](CC(C)C)NC(=O)N[C@H]1CC[C@@H](Oc2cc(N3CCOCC3)cc3nccnc23)CC1 [Compound 391]
57 | < 100 | Cc1ncc(N)c(N[C@H]2CC[C@@H](Oc3cc(N4CCOCC4)cc4nccnc34)CC2)n1 [Compound 369]
58 | < 100 | c1nc2c(c(N[C@H]3CC[C@@H](Oc4cc(N5CCOCC5)cc5nccnc45)CC3)n1)CCN2 [Compound 370]
59 | < 100 | CN(C)c1ccc(N[C@H]2CC[C@@H](Oc3cc(N4CCOCC4)cc4nccnc34)CC2)nn1 [Compound 598]
60 | < 100 | c1nc(CN2CCCCC2)cc(N[C@H]2CC[C@@H](Oc3cc(N4CCOCC4)cc4nccnc34)CC2)n1 [Compound 389]
61 | < 100 | c1cc2c(c(N[C@H]3CC[C@@H](Oc4cc(N5CCOCC5)cc5nccnc45)CC3)c1)OCC2 [Compound 338]
62 | < 100 | CN1CCN(CCOc2cc(N[C@H]3CC[C@@H](Oc4cc(N5CCOCC5)cc5nccnc45)CC3)ncn2)CC1 [Compound 562]
63 | < 100 | Cc1cnc(N[C@H]2CC[C@@H](Oc3cc(N4CCOCC4)cc4nccnc34)CC2)nc1C [Compound 467]
64 | < 100 | Clc1ccnc(N[C@H]2CC[C@@H](Oc3cc(N4CCOCC4)cc4nccnc34)CC2)n1 [Compound 532]
